From paper PMC10946950, “Stretching the Bisalkyne Raman Spectral Palette Reveals a New Electrophilic Covalent Motif” (Chemistry (Weinheim an Der Bergstrasse, Germany), 2023)
Entries after “also recorded” stand apart in the source; their conditions may differ.

Tests used:
ES2 cells = assay: AlamarBlue cell viability assay; assay type: cell-based; conditions: Homo sapiens, ES-2, incubation 72 h
Description: Cell Culture. Human ovarian cancer cell line ES2 was purchased from the American Type Culture Collection, and cells maintained in a humidified incubator at 37°C and 5% CO2 in Dulbecco’s Modified Eagle Medium (DMEM, high glucose, Pyruvate, No Glutamine) (Gibco, cat#21969035), 10% FCS, 1% L-Glutamine (200 mM, ThermoFisher, cat#25-030-081), 1% Pen/Strep (ThermoFisher, cat# […]
AlamarBlue cell viability assay. ES2 cells were plated in sextuplicate wells in a 96-well plate at 3000 cells per well. Compounds were made up as 10 mM stocks in DMSO and added to the cells after 24 h at a range of concentrations (100 µM, 30 µM, 10 µM, 3 µM, 1 µM, 0.3 µM, 0.1 µM, 0.03 µM, 0.01 µM, DMSO only) in 100µl. As a background control 6 wells were plated with media with added DMSO and without cells. After 72 h, 11µl (10%) alamarBlue cell viability reagent (ThermoFisher, cat# DAL1025) was added to each well, including the background control. The plate was incubated at 37°C for 4 h after which the absorbance of the wells was measured with a standard spectrophotometer (Tecan Spark 20M) read at 540nm excitation and 580nm emission wavelength. For each sample the background signal intensity was subtracted from the sample signal intensity and then normalized to the DMSO […]
Subsequent analysis was performed on GraphPad Prism 9 software where the concentrations were converted to a logarithmic scale to which a non -linear regression curve was fitted using the log(inhibitor) vs normalized response with a variable slope model to calculate EC50 values.
Figure S3. EC50 values for compounds 3a – 3n in ES2 cells. Values calculated from 6 technical replicates following incubation for 72 h.
(§1) (1 picture or pasted object on this page, not shown here)

[1] = LC-MS based glutathione (GSH) reactivity assay; assay type: in vitro ADME; conditions: for GSH reactivity compared with the electronically similar tag: 3b vs 3a, 3f vs BADY, 3g vs 3e, data not shown; for conversion to GS-adduct within 5 min / conversion to GS-adduct over 24 h / extent of conversion to GS-adducts (in words): GSH, ACN:PBS buffer (1:1), 37 °C; for conversion to GS-adduct within 5 min / conversion to GS-adduct over 24 h: LC-MS 254 nm; for extent of conversion to GS-adducts (in words): runs at 5 min, 2 h; for conversion to GS-adduct over 24 h / extent of conversion to GS-adducts (in words): 24 h
Description: LC-MS Assay: To 0.5 ml of GSH (50 mmol) in assay buffer (100 mM PBS in H2O) at 37 °C, 0.5 ml of the diyne tag (5 mmol) in CH3CN was added to give a final concentration of 25 mmol and 2.5 mmol of GSH and diyne tags respectively. A magnetic stirbar was added to the assay mixture and stirred at 37 °C. Aliquots from the assay mixture were pipetted out and diluted for LC-MS (ESI+) submissions at 5 min, 2 h and 24 h time points. The chromatogram peaks at 254 nm were extracted to pick the UV-active [M+H]+ values corresponding to the unreacted tags and GS-Tag adducts. Relative intensity (or % conversion) of GS-Tag adduct compared to the unreacted tag for individual LC -MS run was calculated by taking the percentage of mAUGS-Tag divided by mAUGS-Tag + mAUunreacted tag (if A -> B, then % conversion = B/A+B). When [M+H]+ peak of the unreacted tag was below detectable limits, adduct […]
Figure S4. Overlay of the UV-active chromatograms extracted at 254 nm from the LC-MS runs of 3a, 3d, BADY, 3e, 3j and 3k. The chromatograms for each tag at 5 min (black), 2 h (green), 24 h (red) are overlaid. Minimal (3a, BADY), partial (3e) and full (3d, 3j and 3k) conversion were observed which correlated with the ring electronics. […]
are overlaid in a single graph. Conversion is deemed complete when the tag (M) was below detectable limits. * Tags isolated as a mixture of hetero-and homodimers or insoluble in the assay buffer (3i and 3c) were not included in the study. Tags 3b, 3f and 3g have not been shown as their reactivities were similar to the electronicall y similar 3a, BADY and 3e respectively. […]
as §1

[2] = NMR based GSH-reactivity assay; assay type: in vitro ADME; conditions: CD3CN:PBS 1:1, 37 °C
Description: NMR Assay: To 0.5 ml of assay buffer (1:1 CD3CN : 100 mM PBS in H2O), the individual diyne tags (10 mmol) were added, transferred to an NMR tube and 1H NMR spectra was acquired. To another 0.5 ml of the assay buffer, GSH (100 mmol) was added, which was then transferred to the NMR tube containing the buffer solution of the tags. The solution was mixed by inverting the tube several times. A final solution of 5 mmol tag and 50 mM GSH was achieved, a magnetic stirbar was added to the tubes and the NMR tubes were left on a stirplate at 37 °C. 1H NMR was recorded at 310 K (37 °C) after ~5 min and 24 h of reaction set up.
as §1

SMILES	GSH reactivity compared with the electronically similar tag [1]	conversion to GS-adduct over 24 h [1]	extent of conversion to GS-adducts (in words) [1]	EC50 (ES2 cells)	other results
COC(=O)c1ccc(C#CC#Cc2cncn2C)cc1 [3 b]	similar			≥ 100 µM	
COC(=O)c1ccc(C#CC#Cc2nccs2)cc1 [3 d]		reacted completely	complete conversion		conversion to GS-adduct within 5 min [1]: ~25%; extent of conversion to GS-adducts (in words) ([1]; listed as 3d): full
COC(=O)c1ccc(C#CC#Cc2ccccn2)nc1 [3 i]				1.63 µM	
COC(=O)c1ccc(C#CC#Cc2cncn2C)n1C [3 a]		1–2%	Minimal	≥ 100 µM	change of 1H NMR 24 h post GSH addition [2]: no changes

Second part, led by results:

GSH reactivity compared with the electronically similar tag [1]	conversion to GS-adduct over 24 h [1]	extent of conversion to GS-adducts (in words) [1]	SMILES	EC50 (ES2 cells)	other results
similar			COC(=O)c1ccc(C#CC#Cc2cccnc2)cc1 [3 f]	≥ 100 µM	
similar			COC(=O)c1ccc(C#CC#Cc2ccncc2)cc1 [3 g]	24.1 µM	
		complete conversion	COC(=O)c1ccc(C#CC#Cc2ncccn2)nc1 [3 j]	0.54 µM	conversion to GS-adduct within 5 min [1]: reacted completely; also recorded: complete conversion; conversion to GS-adduct within 5 min ([1]; listed as 3j): full conversion; extent of conversion to GS-adducts (in words) ([1]; listed as 3j): full
	~25%	partial	COC(=O)c1ccc(C#CC#Cc2ccccn2)cc1 [3 e]	17.6 µM	
	1–2%	Minimal	C(C#Cc1ccccc1)#Cc1ccccc1 [BADY, reference compound]	≥ 100 µM	change of 1H NMR 24 h post GSH addition [2]: no changes
